Among the data in PubChem BioAssay AID1259407 (Chemical Carcinogenesis Research Information System (CCRIS), 2018) are mutagenic call values, retold here.

Each structure is given as a SMILES string. The source made the active and inactive calls. No rule for the calls is given here.

The data set has as its system CCRIS mutagenicity, Ames/micronucleus/aberration tests. Briefly: CCRIS mutagenicity studies.
[1] abbreviates: Test System: AMES SALMONELLA TYPHIMURIUM, Strain/Indicator: TA97, Metabolic Activation: NONE, Method: STANDARD PLATE.
[2] abbreviates: Test System: AMES SALMONELLA TYPHIMURIUM, Strain/Indicator: TA97, Metabolic Activation: RAT, LIVER, S-9, AROCLOR 1254, Method: STANDARD PLATE.
Where [3] appears, read: Test System: AMES SALMONELLA TYPHIMURIUM, Strain/Indicator: TA98, Metabolic Activation: NONE, Method: PREINCUBATION
Setting [4] is: Test System: AMES SALMONELLA TYPHIMURIUM, Strain/Indicator: TA98, Metabolic Activation: NONE, Method: STANDARD PLATE.
Setting [5] is: Test System: AMES SALMONELLA TYPHIMURIUM, Strain/Indicator: TA98, Metabolic Activation: RAT, LIVER, S-9, AROCLOR 1254, Method: STANDARD PLATE.
Setting [6] is: Test System: AMES SALMONELLA TYPHIMURIUM, Strain/Indicator: TA100, Metabolic Activation: NONE, Method: PREINCUBATION
The mark [7] stands for this setting: Test System: AMES SALMONELLA TYPHIMURIUM, Strain/Indicator: TA100, Metabolic Activation: NONE, Method: STANDARD PLATE.
[8] abbreviates: Test System: AMES SALMONELLA TYPHIMURIUM, Strain/Indicator: TA100, Metabolic Activation: RAT, LIVER, S-9, AROCLOR 1254, Method: STANDARD PLATE.
Where [9] appears, read: Test System: AMES SALMONELLA TYPHIMURIUM, Strain/Indicator: TA102, Metabolic Activation: NONE, Method: STANDARD PLATE.
Where [10] appears, read: Test System: AMES SALMONELLA TYPHIMURIUM, Strain/Indicator: TA102, Metabolic Activation: RAT, LIVER, S-9, AROCLOR 1254, Method: STANDARD PLATE.

Turning to `CC(C)NCC(O)COc1ccc(CC(N)=O)cc1` (stereo not drawn), the mutagenic call is, setting by setting: (Test System: AMES SALMONELLA TYPHIMURIUM, Strain/Indicator: TA98, Metabolic Activation: NONE) “inactive; negative”; (Test System: AMES SALMONELLA TYPHIMURIUM, Strain/Indicator: TA98, Metabolic Activation: RAT, LIVER, S-9, AROCLOR 1254) “inactive; negative”; (Test System: AMES SALMONELLA TYPHIMURIUM, Strain/Indicator: TA100, Metabolic Activation: NONE) “inactive; negative”; (Test System: AMES SALMONELLA TYPHIMURIUM, Strain/Indicator: TA100, Metabolic Activation: RAT, LIVER, S-9, AROCLOR 1254) “inactive; negative”; (Test System: AMES SALMONELLA TYPHIMURIUM, Strain/Indicator: TA1535, Metabolic Activation: NONE) “inactive; negative”; (Test System: AMES SALMONELLA TYPHIMURIUM, Strain/Indicator: TA1535, Metabolic Activation: RAT, LIVER, S-9, AROCLOR 1254) “inactive; negative”. Besides, the mutagenic call was “inactive; negative” (Test System: AMES SALMONELLA TYPHIMURIUM, Strain/Indicator: TA1537, Metabolic Activation: NONE); “inactive; negative” (Test System: AMES SALMONELLA TYPHIMURIUM, Strain/Indicator: TA1537, Metabolic Activation: RAT, LIVER, S-9, AROCLOR 1254); “inactive; negative” (Test System: UDS HUMAN HEPATOCYTES, Strain/Indicator: THY INCORP, Metabolic Activation: NONE, Method: AUTORADIOGRAPHY); “inactive; negative” (Test System: UDS RAT HEPATOCYTES, Strain/Indicator: THY INCORP, Metabolic Activation: NONE, Method: AUTORADIOGRAPHY).
As to `Cc1c(N(C)C)c(=O)n(-c2ccccc2)n1C`, the mutagenic call is “inactive; negative” under setting [1]; “inactive; negative” under setting [2]; “inactive; negative” (Test System: AMES SALMONELLA TYPHIMURIUM, Strain/Indicator: TA98, Metabolic Activation: GUINEA PIG, LIVER, S-9, PCB, Method: PREINCUBATION); “inactive; negative” (Test System: AMES SALMONELLA TYPHIMURIUM, Strain/Indicator: TA98, Metabolic Activation: HAMSTER, LIVER, S-9, PCB, Method: PREINCUBATION); “inactive; negative” (Test System: AMES SALMONELLA TYPHIMURIUM, Strain/Indicator: TA98, Metabolic Activation: MOUSE, LIVER, S-9, PCB, Method: PREINCUBATION); “inactive; negative” under setting [3]. Also, the mutagenic call runs as follows: under setting [4], “inactive; negative”; under setting [5], “inactive; negative”; (Test System: AMES SALMONELLA TYPHIMURIUM, Strain/Indicator: TA98, Metabolic Activation: RAT, LIVER, S-9, PCB, Method: PREINCUBATION) “inactive; negative”; (Test System: AMES SALMONELLA TYPHIMURIUM, Strain/Indicator: TA100(FR1), Metabolic Activation: NONE, Method: STANDARD PLATE) “inactive; negative”; (Test System: AMES SALMONELLA TYPHIMURIUM, Strain/Indicator: TA100(FR1), Metabolic Activation: RAT, LIVER, S-9, PHENOBARBITAL AND 3-METHYLCHOLANTHRENE, Method: STANDARD PLATE) “inactive; negative”; (Test System: AMES SALMONELLA TYPHIMURIUM, Strain/Indicator: TA100, Metabolic Activation: GUINEA PIG, LIVER, S-9, PCB, Method: PREINCUBATION) “inactive; negative”. Also, the mutagenic call is, setting by setting: (Test System: AMES SALMONELLA TYPHIMURIUM, Strain/Indicator: TA100, Metabolic Activation: HAMSTER, LIVER, S-9, PCB, Method: PREINCUBATION) “inactive; negative”; (Test System: AMES SALMONELLA TYPHIMURIUM, Strain/Indicator: TA100, Metabolic Activation: MOUSE, LIVER, S-9, PCB, Method: PREINCUBATION) “inactive; negative”; under setting [6], “inactive; negative”; under setting [7], “inactive; negative”; under setting [8], “inactive; negative”; (Test System: AMES SALMONELLA TYPHIMURIUM, Strain/Indicator: TA100, Metabolic Activation: RAT, LIVER, S-9, PCB, Method: PREINCUBATION) “inactive; negative”. The mutagenic call (Test System: AMES SALMONELLA TYPHIMURIUM, Strain/Indicator: TA100, Metabolic Activation: RAT, LIVER, S-9, PHENOBARBITAL AND 3-METHYLCHOLANTHRENE, Method: STANDARD PLATE) is “inactive; negative”; the mutagenic call under setting [9] was “inactive; negative”; the mutagenic call under setting [10] is “inactive; negative”; the mutagenic call (Test System: AMES SALMONELLA TYPHIMURIUM, Strain/Indicator: TA104, Metabolic Activation: NONE, Method: STANDARD PLATE) is “inactive; negative”; the mutagenic call (Test System: AMES SALMONELLA TYPHIMURIUM, Strain/Indicator: TA104, Metabolic Activation: RAT, LIVER, S-9, AROCLOR 1254, Method: STANDARD PLATE) is “inactive; negative”; the mutagenic call (Test System: CHINESE HAMSTER V-79, Strain/Indicator: V-79/6-THIOGUANINE, Metabolic Activation: NONE) is “inactive; negative”. Further, the mutagenic call (Test System: CHINESE HAMSTER V-79, Strain/Indicator: V-79/6-THIOGUANINE, Metabolic Activation: RAT, LIVER, HEPATOCYTES) is “inactive; negative”; the mutagenic call (Test System: CHINESE HAMSTER V-79, Strain/Indicator: V-79/OUABAIN, Metabolic Activation: NONE) is “inactive; negative”; the mutagenic call (Test System: CHINESE HAMSTER V-79, Strain/Indicator: V-79/OUABAIN, Metabolic Activation: RAT, LIVER, HEPATOCYTES) is “inactive; negative”.
Consider `Clc1ccncc1`, for which the mutagenic call by setting is: under setting [1], “inactive; negative”; under setting [2], “inactive; negative”; under setting [4], “inactive; negative”; under setting [5], “inactive; negative”; under setting [7], “inactive; negative”; under setting [8], “inactive; negative”. Besides, the mutagenic call is “inactive; negative” under setting [9] and “inactive; negative” under setting [10].
Consider `O[As](O)O`, for which, for the setting “End Point: IN VIVO MICRONUCLEUS, Test System: BONE MARROW POLYCHROMATIC ERYTHROCYTES, Species: MOUSE, Strain/Sex: C57BL/6/MALE, Route: IP INJECTION”, the mutagenic call is “active; positive”.
Take `CCN(CC)CC(O)CNc1c2ccc([N+](=O)[O-])cc2nc2cc(OC)c(OC)cc12` (stereo not drawn): the mutagenic call is, setting by setting: (Test System: Escherichia coli, Strain/Indicator: CC107 (G6 to B7 frameshifts), Metabolic Activation: None, Method: Modified preincubation) “active; positive”; (Test System: Escherichia coli, Strain/Indicator: CC108 (G6 to G5 frameshifts), Metabolic Activation: None, Method: Modified preincubation) “active; positive”; (Test System: Escherichia coli, Strain/Indicator: CC109 (CG5 to CG4 frameshifts), Metabolic Activation: None, Method: Modified preincubation) “active; positive”; (Test System: Escherichia coli, Strain/Indicator: CC111 (A7 to A6 frameshifts), Metabolic Activation: None, Method: Modified preincubation) “inactive; negative”.
Take `O=C(O)Cc1ccccc1Cl`: the mutagenic call under setting [3] was “inactive; negative”; the mutagenic call (Test System: AMES SALMONELLA TYPHIMURIUM, Strain/Indicator: TA98, Metabolic Activation: RAT LIVER S-9, PCB, Method: PREINCUBATION) was “inactive; negative”; the mutagenic call under setting [6] was “inactive; negative”; the mutagenic call (Test System: AMES SALMONELLA TYPHIMURIUM, Strain/Indicator: TA100, Metabolic Activation: RAT LIVER S-9, PCB, Method: PREINCUBATION) was “inactive; negative”; the mutagenic call (Test System: AMES SALMONELLA TYPHIMURIUM, Strain/Indicator: TA104, Metabolic Activation: NONE, Method: PREINCUBATION) is “inactive; negative”; the mutagenic call (Test System: AMES SALMONELLA TYPHIMURIUM, Strain/Indicator: TA104, Metabolic Activation: RAT LIVER S-9, PCB, Method: PREINCUBATION) is “inactive; negative”. Further, the mutagenic call was “inactive; negative” (Test System: E.COLI, Strain/Indicator: WP2 UVRA, Metabolic Activation: NONE, Method: PREINCUBATION) and “inactive; negative” (Test System: E.COLI, Strain/Indicator: WP2 UVRA, Metabolic Activation: RAT LIVER S-9, PCB, Method: PREINCUBATION).
